Common to all, as to format: biochemical
Experiment [1] deals with T1, Tissue Factor/factor VIIa (recombinant human factor VIIa, soluble Tissue Factor (1-219)) (Homo sapiens, UniProt P08709).
T1 construct: recombinant human factor VIIa (NB #25942-16); NB #25942-16
As to the kind of experiment: Tissue Factor/Factor VIIa antagonist assay (Ki, chromogenic substrate Chromozym-tPA). Particulars: read-out: Ki(TFVIIa). As to the method: Tissue Factor/Factor VIIa Antagonist Assay
This procedure can be used to determine the constant of inhibition (Ki) for a sample compound of the invention.
1. Prepare a solution of 2 μg/mL (90 nM) tissue factor and 1.5 μg/mL (30 nM) factor VIIa in assay buffer with CaCl2.
2. Incubate for 15 minutes at room temperature.
3. Add 50 μL sample to each well.
4. Add 50 μL tissue factor/factor VIIa solution to each well.
5. Incubate for 15 minutes at room temperature with gentle agitation.
6. Add 50 μL substrate to each well.
7. Agitate plate for 20-25 sec.
8. Monitor absorbance at 405 nm every 10 sec for a total of 5 minutes at room temperature.
9. Calculate Vmax over 10 points.
(§1) Assay—Enzyme, Substrate and Final Concentrations

In experiment [2] the target is T2, human Plasma Kallikrein (Homo sapiens, UniProt P03952).
T2 construct: Factor Xa, Thrombin, and Plasma Kallikrein Assays
As to the kind of experiment: Plasma Kallikrein assay (Ki, chromogenic substrate S-2302). As to the method:
(§2) Factor Xa, Thrombin, and Plasma Kallikrein Assays
(§3) These procedures can be used to determine the constant of inhibition (Ki) for a sample compound of the invention.
(§4) 1. Add 50 μL sample to each well.
(§5) 2. Add 50 μL appropriately diluted coagulation factor to each well.
(§6) 3. Incubate for 5 minutes at room temperature with gentle agitation.
(§7) 4. Add 50 μL appropriately diluted substrate to each well.
(§8) 5. Agitate plate for 20-25 sec.
(§9) 6. Monitor absorbance at 405 nm every 10 sec for a total of 5 minutes at room temperature.
(§10) 7. Calculate Vmax over 10 points.
as §1

Experiment [3] deals with T3, human Thrombin (Homo sapiens, UniProt P00734).
T3 construct: rapidly converts prothrombin to thrombin
The experiment in a line: Thrombin assay (Ki, chromogenic substrate S-2366). Particulars: read-out: Ki(IIa). On the procedure: as §2, §3, §4, §5, §6, §7, §8, §9, §10, §1

Experiment [4] addresses T4, human Factor Xa (Homo sapiens, UniProt P00742).
T4 construct: This complex converts factor X to Xa
The experiment in a line: Factor Xa assay (Ki, chromogenic substrate S-2222). As to the method: as §2, §3, §4, §5, §6, §7, §8, §9, §10, §1

T4 sequence (P00742 235-488 limits assumed): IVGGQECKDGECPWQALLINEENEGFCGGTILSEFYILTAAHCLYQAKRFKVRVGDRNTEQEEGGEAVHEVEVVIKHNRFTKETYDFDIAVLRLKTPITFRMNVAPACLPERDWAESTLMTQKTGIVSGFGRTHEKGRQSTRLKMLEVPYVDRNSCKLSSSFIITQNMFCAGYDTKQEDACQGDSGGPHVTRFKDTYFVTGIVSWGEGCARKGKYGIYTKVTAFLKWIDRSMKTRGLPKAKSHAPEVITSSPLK
T4 sequence (P00742 41-179 limits assumed): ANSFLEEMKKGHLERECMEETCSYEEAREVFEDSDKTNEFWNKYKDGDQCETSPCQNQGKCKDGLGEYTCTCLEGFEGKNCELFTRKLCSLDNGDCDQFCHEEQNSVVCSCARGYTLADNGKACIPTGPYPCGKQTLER
T1 sequence (P08709 213-466 limits assumed): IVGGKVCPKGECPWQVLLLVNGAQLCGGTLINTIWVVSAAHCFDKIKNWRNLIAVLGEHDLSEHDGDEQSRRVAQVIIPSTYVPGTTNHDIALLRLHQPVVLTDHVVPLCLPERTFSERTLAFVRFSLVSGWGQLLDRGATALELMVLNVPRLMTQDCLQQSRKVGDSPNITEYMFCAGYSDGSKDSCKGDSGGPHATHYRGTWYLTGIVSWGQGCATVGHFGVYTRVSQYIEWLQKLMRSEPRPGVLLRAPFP
T1 sequence (P08709 61-212 limits assumed): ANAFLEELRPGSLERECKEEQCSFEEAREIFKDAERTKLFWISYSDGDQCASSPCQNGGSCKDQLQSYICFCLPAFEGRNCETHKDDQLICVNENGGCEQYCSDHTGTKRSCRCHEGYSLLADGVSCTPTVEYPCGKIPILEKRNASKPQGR
T1 sequence (P13726 33-251 partner limits assumed): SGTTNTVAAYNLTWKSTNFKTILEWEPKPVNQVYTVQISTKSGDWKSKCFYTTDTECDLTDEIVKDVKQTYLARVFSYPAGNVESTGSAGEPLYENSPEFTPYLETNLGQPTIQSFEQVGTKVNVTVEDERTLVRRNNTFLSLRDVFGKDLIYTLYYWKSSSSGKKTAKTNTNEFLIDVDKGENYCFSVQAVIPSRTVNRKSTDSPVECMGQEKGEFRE
T2 sequence (P03952 391-638 limits assumed): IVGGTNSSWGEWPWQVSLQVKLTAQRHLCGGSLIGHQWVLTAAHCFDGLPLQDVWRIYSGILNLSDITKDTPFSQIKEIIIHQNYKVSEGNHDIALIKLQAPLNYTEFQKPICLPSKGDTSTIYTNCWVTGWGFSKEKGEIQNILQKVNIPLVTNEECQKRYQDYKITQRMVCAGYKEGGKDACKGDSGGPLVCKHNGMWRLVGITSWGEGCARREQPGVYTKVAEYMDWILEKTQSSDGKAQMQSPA
T2 sequence (P03952 20-390 limits assumed): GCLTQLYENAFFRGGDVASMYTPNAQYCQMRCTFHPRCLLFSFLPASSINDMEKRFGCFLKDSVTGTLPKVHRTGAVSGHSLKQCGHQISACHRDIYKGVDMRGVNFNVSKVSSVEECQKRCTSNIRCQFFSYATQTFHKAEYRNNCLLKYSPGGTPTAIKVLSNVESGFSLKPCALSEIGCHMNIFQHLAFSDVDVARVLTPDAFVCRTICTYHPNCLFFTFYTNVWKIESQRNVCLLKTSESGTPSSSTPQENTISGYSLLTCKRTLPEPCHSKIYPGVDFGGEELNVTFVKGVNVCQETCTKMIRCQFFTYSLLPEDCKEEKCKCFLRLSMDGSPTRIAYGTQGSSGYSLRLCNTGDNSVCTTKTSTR

As for `CCOc1cc(OCC)cc(C(Nc2ccc(C(=N)N)cc2)C(=O)NS(=O)(=O)c2ccccc2)c1` (stereo not shown), the inhibition constant (Ki) in experiment [1] stood at 7 nM.

As for `CCOc1ccc(C(Nc2ccc(C(=N)N)cc2)C(=O)NS(=O)(=O)c2ccccc2)cc1OCC` (stereo not shown), the Ki came out at 2 nM in experiment [2] and 5 nM in experiment [1].

In turn, `CCCS(=O)(=O)NCC(Nc1ccc(C(=N)N)cc1)c1cc(OCC)c(OCC(C)C)cc1NS(=O)(=O)CCC` (stereo not shown) had an inhibition constant (Ki) in experiment [2] of 1 nM.

In turn, `CCCS(=O)(=O)NCC(Nc1ccc(C(=N)N)cc1)c1cc(OCC)c(OC(C)C)cc1NS(C)(=O)=O` (stereo not shown) had a Ki in experiment [2] of 1 nM.

In the case of `COc1cc(C(CNS(=O)(=O)c2cccs2)Nc2ccc(C(=N)N)cc2)ccc1OCc1ccccc1` (stereo not shown) [4-[1-(4-Benzyloxy-3-methoxy-phenyl)-2-(thiophene-2-sulfonylamino)-ethylamino]-benzamidine], the inhibition constant (Ki) in experiment [3] was found to be 16 nM.

On to `CCCS(=O)(=O)NCC(Nc1ccc(C(=N)N)cc1)c1cc(OCC)c(OCc2ccccc2)cc1NS(C)(=O)=O` (stereo not shown) [4-[1-(4-Benzyloxy-5-ethoxy-2-methanesulfonylamino-phenyl)-2-(propane-1-sulfonylamino)-ethylamino]benzamidine], for which the Ki in experiment [1] came out at 4 nM.

Consider `COc1cc(C(CNS(=O)(=O)c2ccccc2)Nc2ccc(C(=N)N)cc2)ccc1OC(CCl)c1ccccc1` (stereo not shown) [4-{2-benzenesulfonylamino-1-[4-(2-chloro-1-phenyl-ethoxy)-3-methoxy-phenyl]-ethylamino}-benzamidine], for which the Ki in experiment [3] came to 1 nM.

For `CCOc1cc(C(Nc2ccc(C(=N)N)cc2)C(=O)NS(=O)(=O)c2ccccc2)ccc1OC(C)C` (stereo not shown) [4-{2-benzenesulfonylamino-1-[4-isopropoxy,5-ethoxy)-phenyl]-2-oxo-ethylamino}benzamidine], the Ki worked out at 113 nM in experiment [3], 898 nM in experiment [4] and 3 nM in experiment [1].

As for `CCCCS(=O)(=O)NC(=O)C(Nc1ccc(C(=N)N)cc1)c1ccc(OC(C)C)c(OCC)c1` (stereo not shown) [4-{2-butylsulfonylamino-1-[4-isopropoxy,5-ethoxy)-phenyl]-2-oxo-ethylamino}benzamidine], the Ki in experiment [4] was 624 nM.

For `CCOc1cc(C(Nc2ccc(C(=N)N)cc2)C(=O)NS(=O)(=O)CC)ccc1OC(C)C` (stereo not shown) [4-{2-ethylsulfonylamino-1-[4-isopropoxy,5-ethoxy)-phenyl]-2-oxo-ethylamino}benzamidine], the Ki in experiment [2] came out at 11 nM; in experiment [4], 565 nM.

As for `CCCS(=O)(=O)NCC(Nc1ccc(C(=N)N)cc1)c1ccc(OC(CCl)c2ccccc2)c(OC)c1` (stereo not shown) [4-{2-propanesulfonylamino-1-[4-(2-chloro-1-phenyl-ethoxy)-3-methoxy-phenyl]-ethylamino}-benzamidine], the values for the Ki in experiment [3] and in experiment [4] were 1 nM and 140 nM, respectively.

One may read the Ki as the equilibrium dissociation constant of an inhibitor or competing ligand from its target.

These data come from US6472393B1, “Serine protease inhibitors” (Genentech, Inc., priority 1999, dated 2002).
